According to US20210163489A1, “PYRAZOLOPYRIMIDINE DERIVATIVES AND THE COMPOSITIONS AND METHODS OF TREATMENT REGARDING THE SAME” (NysnoBio Ireland DAC, priority 2016, published 2021):

Assays:
[1] = system: S-HeLa stably expressing a YFP-Parkin fusion protein; assay: Cell rating experiments: Parkin-dependent induction of mitophagy (Tomm20 immunofluorescence); format: cell-based; design: key to Cell Ratings [Example 4] (cell activity): +++: >70% effect at 10 μM; ++: 69%-31% effect at 10 μM; +: <30% effect at 10 μM; −: negative at 10 μM; settings: Tomm20 negative cells, 6 μM CCCP, compound at 10 μM; for activation at 10 µM: 20 h, read-out: Cell Ratings [Example 4] (cell activity); for Cell Ratings [Example 4] (cell activity): 20 hours
Method: Compounds: All compounds were dissolved in DMSO to a concentration of 25 mM and stored at −20° C. Compound 1 is N,N′-(1-phenyl-1H-1,2,4-triazole-3,5-diyl)dibenzamide.
Cell Culture: S-HeLa stably expressing a YFP-Parkin fusion protein (kindly donated by Prof. Richard J. Youle, Porter Neuroscience Research Center, Bethesda, Md., USA) were utilised to assess Parkin-dependent induction of mitophagy. 4000 cells were seeded in each well of a 96 well plate (Parkin Elmer ViewPlate-96 F TC, cat. N. 6005182) and left to grow for 24 hours.
Subsequently cells were incubated with vehicle (DMSO) or 6 μM CCCP for 1 hour prior to adding increasing concentrations of compound (1, 2.5, 5, 10 μM), each condition run in replicate of five. After 20 hours cells were processed for immunofluorescence.
Immunofluorescence: Samples were fixed in 4% PFA for 25 minutes RT and permeabilized with PBS 0.1% Triton-X100 for 3 minutes on ice, blocked with PBS 3% BSA, 0.3% Triton-X100 for 2 hours RT, followed by overnight incubation with primary antibody at 4° C. ([…] rabbit Tomm20 antibody FL-145; Santa Cruz Biotechnology) diluted in PBS 0.1% BSA, 0.3% Triton-X100. The secondary goat anti-rabbit antibody conjugated with DyLight 649 (Jackson ImmunoResearch) was applied for 1 hour at room temperature at a concentration of […] in conjunction with […] Hoechst33342.
Cells were imaged using an Olympus ScanR automated microscope equipped with motorised stage and 20x APO planar objective. 18 images were acquired for each well using the following combination of excitation/emission filters: Hoechst33342 was excited through a 350/50 nm band pass filter and fluorescence intensity was collected through a 460/30 band pass filter. YFP was excited through a 500/20 nm band pass filter and fluorescence intensity was collected through a 540/35 band pass filter. DyLight 649 was excited through a 640/30 nm band pass filter and fluorescence intensity was collected through 700/75 band pass filter. Images were processed and analysed as described in the Image Analysis section.
Image analysis: Images were processed and analysed using Columbus HCS Analysis software (Version 2.5.0., PerkinElmer) as follows:
Tomm20 fluorescence intensity was corrected using the parabola algorithm. Hoechst 33342 fluorescence was used to identify and count cells. Cells were segmented according to Tomm20 fluorescence intensity. Spot detection was optimized to recognize number and total cellular area of Tomm20 stained clusters (mitochondria).
Tomm20 staining intensity, spot numbers and spot area were used to train a linear classifier algorithm that discriminated between Tomm20 positive (high intensity, spot numbers and spot area) and Tomm20 negative cells (low intensity, spot numbers and spot area).
Bar graphs were generated reporting the number of Tomm20 negative cells expressed as percentage of total cells imaged for each well (FIGS. 3 and 6). Results were shown as mean ±SD of a representative experiment performed in triplicate. +++ indicates >70% effect at 10 μM; ++ indicates 69%-31% effect at 10 μM; + indicates <30% effect at 10 μM; − indicates negative at 10 μM; NA=not available.

[2] = Metabolic stability in rat liver microsomes (RLM); format: in vitro ADME; settings: rat, liver microsomes, pH 7.4, 1 μM compound, 1.0 mg/mL microsome, NADPH; read-out: RLM t1/2
Method: (§1) Compounds were also tested for metabolic stability in both rat liver microsomes (RLM) and human liver microsomes (HLM) and their half-life calculated (See Table 6). The assay was performed as follows. The total volume for each incubation was 250 μL. A 100 μM DMSO solution of compound (diluted from 10 mM stock solution) was spiked into 50 mM KH2PO4 (pH 7.4) buffer containing liver microsome at a concentration of 1.0 mg/mL. The reaction was initiated by the addition of 50 μL of 1 mM NADPH. The final concentration of each compound was 1 μM (1% DMSO). The positive controls, phenacetin for CYP1A2, diclofenac for CYP2C9, omeprazole for CYP2C19, dextromethorphan for CYP2D6 and midazolam for CYP3A4 were added to a separate tube with the final substrate concentrations of 1 μM (1% DMSO) for evaluating the enzyme activities in the liver microsomes. At 0, 15, 30 and 60 min, an aliquot of 15 μL reaction mixtures were removed and 200 μL of methanol (with internal standard of 25 ng/mL propranolol) was added to quench the reaction. The resulting mixture was centrifuged and supernatant was used for LC-MS/MS analysis.
(§2) The signals for each compound, or the metabolites for the probe substrates and the internal standard were integrated and the peak area ratios to internal standard were generated. Percent parent remaining at a specified timepoint was calculated based on the peak area ratios at time 0 (as 100%) for in vitro metabolic stability studies in liver microsome and hepatocyte. The observed rate constant (kobs) for the metabolism of substrates was calculated by plotting the natural log of percentage substrate remaining versus time of incubation with the slope being kobs. The half-life (T1/2) was calculated according to the following equation: […]

[3] = Metabolic stability in human liver microsomes (HLM); format: in vitro ADME; settings: pH 7.4, 1 μM compound, 1.0 mg/mL microsome, NADPH, read-out: HLM t1/2
Method: as §1, §2

SMILES | half-life at 1 μM [2] [min] | half-life at 1 μM [3] [min] | activation at 10 µM [1] [%] | Cell Ratings [Example 4] (cell activity) [1]
Cc1nc2c(-c3ccccc3)c(C)nn2c(S)c1Cc1ccccc1 [Compound A, 6-benzyl-2,5-dimethyl-3-phenylpyrazolo[1,5-a]pyrimidine-7-thiol] | 84.5 | 63 |  | 
Cc1nc2c(-c3cccnc3)c(C)nn2c(S)c1Cc1ccccc1 [Compound D3] | 63 |  |  | 
Sc1c(Cc2ccccc2)cnc2c(-c3ccccc3)cnn12 [Compound Z, 6-benzyl-3-phenyl-pyrazolo[1,5-a]pyrimidin-7-thiol] |  |  | 31 to 69 | 
COc1ccccc1-c1c(C)nn2c(S)cc(C)nc12 [Compound D] |  |  | < 30 | 
Cc1cc2nc(C)c(Cc3ccccc3)c(S)n2n1 [S] |  |  | < 30 | 
Cc1nc2c(C(F)(F)F)c(C)nn2c(S)c1Cc1ccccc1 [LL] |  |  | 31 to 69 | 
CCc1nn2c(S)cc(C)nc2c1-c1ccc(F)cc1 [Compound I] |  |  | 31 to 69 | 
Cc1cc2nc(C)c(Cc3ccc(Cl)cc3)c(O)n2n1 [Compound P, 6-[(4-chlorophenyl)methyl]-2,5-dimethyl-pyrazolo[1,5-a]pyrimidin-7-ol] |  |  | < 30 | 
Cc1nc2c(-c3ccncc3)c(C)nn2c(S)c1Cc1ccccc1 [MM] |  |  |  | −
Cc1nn2c(S)c3c(nc2c1-c1ccccc1)CN(C)CC3 [Compound C3] | 277 | 154 |  | 
Cc1nc2c(-c3ccccc3)c(C)nn2c(O)c1Cc1ccccc1 [T] |  |  | < 30 | 
CC(C)(C)c1cc(O)n2ncc(-c3ccccc3)c2n1 [J] |  |  | 31 to 69 | 
Cc1nn2c(S)c(Cc3ccccc3)cnc2c1-c1ccccc1 [Compound DD, 6-benzyl-2-methyl-3-phenyl-pyrazolo[1,5-a]pyrimidin-7-thiol] |  |  | 31 to 69 | 
Cc1cc2nc(C)c(Cc3ccc(Cl)cc3)c(S)n2n1 [Compound R, 6-[(4-chlorophenyl)methyl]-2,5-dimethyl-pyrazolo[1,5-a]pyrimidine-7-thiol] |  |  | < 30 | 
Cc1nn2c(O)cc(C(C)(C)C)nc2c1-c1ccc(Cl)cc1 [F] |  |  | 31 to 69 | 
Cc1nc2c(-c3ccccn3)c(C)nn2c(O)c1Cc1ccccc1 [FF] |  |  | < 30 | 
Cc1nn2c(S)c3c(nc2c1-c1ccccc1)CCCC3 [Compound K] |  |  | 31 to 69 | 
Cc1cc(S)n2ncc(-c3ccccc3)c2n1 [Compound C] |  |  | 31 to 69 | 
Cc1nc2c(-c3ccccc3)c(C)nn2c(S)c1Cc1ccccn1 [Compound BB, 2,5-dimethyl-3-phenyl-6-(2-pyridylmethyl)pyrazolo[1,5-a]pyrimidine-7-thiol] |  |  |  | −
Cc1nn2c(S)c(CCc3ccccc3)cnc2c1-c1ccccc1 [Compound E3] | 3 |  |  | 

More lines, main results first:

half-life at 1 μM [2] [min] | half-life at 1 μM [3] [min] | SMILES | activation at 10 µM [1] [%] | Cell Ratings [Example 4] (cell activity) [1]
29 |  | Cc1nc2c(-c3ccccc3)cnn2c(O)c1Cc1ccccc1 [Compound U, 6-benzyl-5-methyl-3-phenyl-pyrazolo[1,5-a]pyrimidin-7-ol] | 31 to 69 | 
4.2 | 33 | Cc1cc(S)n2ncc(-c3cccc(N(C)C)c3)c2n1 [UU] |  | 
8.1 | 11.8 | Cc1ccc(-c2cnn3c(S)cc(C)nc23)cc1 [TT] |  | 
22 |  | Cc1nn2c(S)c(CC(C)C)cnc2c1-c1ccccc1 [Compound G3] |  | 
68 | 161 | Cc1cc(S)n2ncc(-c3ccc(F)cc3)c2n1 [Compound L, 3-(4-fluorophenyl)-5-methylpyrazolo[1,5-a]pyrimidine-7-thiol] | > 70 | 
112 | 65.4 | Cc1nc2c(-c3ccccc3)c(C)nn2c(S)c1Cc1ccncc1 [Compound AA, 2,5-dimethyl-3-phenyl-6-(4-pyridylmethyl)pyrazolo[1,5-a]pyrimidine-7-thiol] | > 70 | 
12.9 | 44.4 | COc1ccc(-c2cnn3c(S)cc(C)nc23)cc1 [SS] |  | 
67 |  | Cc1cc(S)c2ncc(-c3ccc(F)cc3)n2n1 [Compound F3] |  | 
55.9 | 173 | Cc1cc(C)c2c(n1)nn1c(S)cc(C)nc21 [Compound E] | > 70 | 
55.9 | 22.9 | Cc1nc2c(-c3ccccc3)cnn2c(S)c1Cc1ccccc1 [Compound CC, 6-benzyl-5-methyl-3-phenyl-pyrazolo[1,5-a]pyrimidin-7-thiol] | > 70 | 
> 500 |  | Cc1ccc(-c2cnn3c(S)c4c(nc23)CN(C)CC4)cc1 [Compound S3] |  | 
44 |  | Cc1nn2c(S)c(C)c(Cc3ccccc3)nc2c1-c1ccccc1 [ZZ] |  | 
